Test results published in US11649430B2 (priority 2018, dated 2023).

System: R. solanacearum
Assay type: cell-based, Ralstonia solanacearum
Conditions: ΔrmyA mutant strain (more sensitive than WT); 0.4 mM; 24 hours

Row | Structure (SMILES) | R. solanacearum growth (OD)
1 | COC1=C(O)C(=O)C2=C(C1=O)[C@H]1N[C@@H](Cc3c[nH]c4ccccc34)C(=O)N1C(C(=O)N[C@@H](CC(C)CO)C(=O)O)C2 (some centres unmarked) [Imizoquin A, imizoquin A] | decreases R. solanacearum growth modestly
2 | COC1=C(O)C(=O)C2=C(C1=O)[C@H]1N[C@@H](Cc3c[nH]c4ccccc34)C(=O)N1C(C(=O)N[C@@H](CC(CO)CO)C(=O)O)C2 (some centres unmarked) [Imizoquin B, imizoquin B] | decreases R. solanacearum growth modestly
